Test results from the supplement of paper PMC10307832.

How the values were obtained:
Assay in all cases: relative viability (nuclei count vs DMSO), 5 days (fraction); higher = more cells survive
Wnt-C59 + Bortezomib = compound: CC1=NC=CC(=C1)C2=CC=C(C=C2)CC(=O)NC3=CC=C(C=C3)C4=CN=CC=C4 [Wnt-C59] + CC(C)C[C@H](NC(=O)[C@H](Cc1ccccc1)NC(=O)c1cnccn1)B(O)O [Bortezomib] (partner 0.002 µM)
Summary of the method: (§1)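 For relative viability, nuclei counts in treated wells were divided by those in vehicle wells. Lung cancer cell lines had been pin-tool dosed in 1536-well plates the day after seeding and cultured for 5 days, then fixed and stained in one step (final 0.05% Triton X-100, 1% formaldehyde, 1 ug/ml Hoechst) and imaged at 4×. Doses were one drug alone or a fixed anchor-drug dose plus five library-drug doses (not always all listed) in √10 steps, and values are duplicate-plate medians.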

Wnt-C59 + Pictilisib = compound: CC1=NC=CC(=C1)C2=CC=C(C=C2)CC(=O)NC3=CC=C(C=C3)C4=CN=CC=C4 [Wnt-C59] + CS(=O)(=O)N1CCN(Cc2cc3nc(-c4cccc5[nH]ncc45)nc(N4CCOCC4)c3s2)CC1 [Pictilisib] (partner 1 µM)
Summary of the method: as §1

Wnt-C59 + Linsitinib = compound: CC1=NC=CC(=C1)C2=CC=C(C=C2)CC(=O)NC3=CC=C(C=C3)C4=CN=CC=C4 [Wnt-C59] + C[C@]1(O)C[C@@H](c2nc(-c3ccc4ccc(-c5ccccc5)nc4c3)c3c(N)nccn32)C1 [Linsitinib] (partner 1 µM)
Summary of the method: as §1

Lapatinib + Pemetrexed = compound: CS(=O)(=O)CCNCc1ccc(-c2ccc3ncnc(Nc4ccc(OCc5cccc(F)c5)c(Cl)c4)c3c2)o1 [Lapatinib] + Nc1nc2[nH]cc(CCc3ccc(C(=O)N[C@@H](CCC(=O)O)C(=O)O)cc3)c2c(=O)[nH]1 [Pemetrexed] (partner 0.2 µM)
Summary of the method: as §1

Cell Line | relative viability (Wnt-C59 + Bortezomib; first compound 0.001 µM) | relative viability (Wnt-C59 + Bortezomib; first compound 0.01 µM) | relative viability (Wnt-C59 + Bortezomib; first compound 0.03162 µM) | relative viability (Wnt-C59 + Bortezomib; first compound 0.1 µM) | relative viability (Wnt-C59 + Pictilisib; first compound 0.001 µM) | relative viability (Wnt-C59 + Pictilisib; first compound 0.01 µM) | relative viability (Wnt-C59 + Pictilisib; first compound 0.03162 µM) | relative viability (Wnt-C59 + Pictilisib; first compound 0.1 µM) | relative viability (Wnt-C59 + Linsitinib; first compound 0.001 µM) | relative viability (Wnt-C59 + Linsitinib; first compound 0.01 µM) | relative viability (Wnt-C59 + Linsitinib; first compound 0.03162 µM) | relative viability (Wnt-C59 + Linsitinib; first compound 0.1 µM) | relative viability (Lapatinib + Pemetrexed; first compound 0.06325 µM) | relative viability (Lapatinib + Pemetrexed; first compound 0.2 µM) | relative viability (Lapatinib + Pemetrexed; first compound 0.6325 µM) | relative viability (Lapatinib + Pemetrexed; first compound 2 µM) | relative viability (Lapatinib + Pemetrexed; first compound 0.02 µM)
NCI-H1734 | 0.906 | 0.778 | 0.992 | 0.914 | 0.438 | 0.438 | 0.473 | 0.461 | 0.858 | 0.779 | 0.916 | 0.911 | 0.422 | 0.411 | 0.425 | 0.383 | –
ChaGo-K-1 | 0.767 | – | 0.892 | 1.16 | 0.461 | – | 0.862 | 1.02 | – | – | – | – | 0.274 | 0.265 | 0.264 | 0.253 | 0.281
LU99A | 1.11 | 1.08 | 1.07 | 1.1 | 0.309 | 0.317 | 0.316 | 0.321 | 0.554 | 0.508 | 0.594 | 0.495 | 0.161 | 0.223 | 0.178 | 0.182 | 0.203
ABC-1 | 0.266 | 0.171 | 0.33 | 0.306 | 0.685 | 0.817 | 0.76 | 0.6 | 0.909 | 0.759 | 0.774 | 0.702 | – | – | – | – | –
HCC-44 | 0.948 | 0.886 | 0.903 | 0.887 | 0.597 | 0.639 | 0.621 | 0.772 | 0.745 | 0.641 | 0.665 | 0.644 | 0.653 | 0.651 | 0.614 | 0.685 | 0.681
NCI-H1650 | 0.21 | 0.219 | 0.205 | 0.219 | 0.549 | 0.53 | 0.645 | 0.532 | – | – | – | – | 0.377 | 0.395 | 0.337 | 0.345 | 0.364
NCI-H596 | 0.837 | 1.08 | 1.12 | – | 0.43 | 0.437 | 0.381 | 0.421 | 1.04 | 0.954 | 1.16 | 1.1 | 0.505 | 0.531 | 0.504 | 0.494 | –
NCI-H1915 | 0.943 | 0.951 | 1.05 | 0.934 | 0.97 | 0.922 | 0.837 | 0.958 | 1.07 | 1.04 | 1.12 | 1.09 | 0.457 | 0.456 | 0.465 | 0.473 | –
NCI-H1395 | – | – | – | – | 0.656 | 0.608 | 0.655 | 0.664 | 0.972 | 1.06 | 1.09 | 1.03 | 0.938 | 0.87 | 0.887 | 0.793 | –
CAL-12T | 0.979 | – | 0.875 | 1.14 | 0.259 | – | 0.436 | 0.511 | 0.759 | 0.752 | 0.776 | 0.766 | 1.31 | 1.37 | 1.04 | 0.744 | 1.16
SW 900 | – | – | – | – | – | – | – | – | – | – | – | – | 0.432 | 0.494 | 0.471 | 0.45 | –
NCI-H2342 | – | – | – | – | – | – | – | – | – | – | – | – | 0.712 | 0.723 | 0.776 | 0.714 | 0.576
